From paper PMC9320886, “Daily Intraperitoneal Administration of Rosiglitazone Does Not Improve Lung Function or Alveolarization in Preterm Rabbits Exposed to Hyperoxia” (Pharmaceutics, 2022)
pEC50: −log10 of the molar value. Where two headings read alike, the source gives them in different places.

Assays:
[1] = molecular target: T1, human PPARγ (Homo sapiens, UniProt P37231); assay: human PPARγ nuclear reporter assay (luciferase); settings: reporter cells incubated 24 h, luminescence
T1 sequence (P37231 1-505): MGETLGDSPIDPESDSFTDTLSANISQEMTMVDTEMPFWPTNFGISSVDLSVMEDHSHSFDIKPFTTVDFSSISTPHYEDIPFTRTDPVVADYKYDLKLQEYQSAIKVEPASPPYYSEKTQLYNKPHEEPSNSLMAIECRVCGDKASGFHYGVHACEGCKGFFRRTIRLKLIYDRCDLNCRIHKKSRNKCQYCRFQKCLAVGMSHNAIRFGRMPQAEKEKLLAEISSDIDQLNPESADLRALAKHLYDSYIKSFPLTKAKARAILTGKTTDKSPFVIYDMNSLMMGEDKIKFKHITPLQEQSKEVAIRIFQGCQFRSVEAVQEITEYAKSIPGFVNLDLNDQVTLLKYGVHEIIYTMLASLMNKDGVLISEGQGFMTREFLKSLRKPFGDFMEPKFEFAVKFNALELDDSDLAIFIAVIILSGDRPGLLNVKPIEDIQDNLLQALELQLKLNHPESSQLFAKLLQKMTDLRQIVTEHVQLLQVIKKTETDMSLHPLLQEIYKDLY
Experimental: A human PPARγ nuclear reporter assay was purchased from Indigo Biosciences Inc. (Cat. #IB00101, State College, PA, USA) and was performed according to the manufacturer’s instructions. Briefly, the reporter cells of the assays include a luciferase reporter gene functionally linked to a PPARγ-responsive promoter. Thus, quantifying changes in luciferase expression in the treated reporter cells provides a sensitive surrogate measure of the changes in PPARγ activity. […] A sigmoidal dose–response analysis was performed to determine the half-maximal effective concentration (EC50) values for each TZD (GraphPad Prism 8.4.3, San Diego, CA, USA).

[2] = test system: Caco-2 cell monolayers; assay: Caco-2 permeability assay; assay type: in vitro ADME
Experimental: (§1) Caco-2 cells were purchased from ReadyCell (Barcelona, Spain). The cells arrived already seeded and differentiated (21-days) in 96-well plates (CacoReady 96-well kits, ReadyCell). Cells were maintained in a cell culture medium: Dulbecco’s modified Eagle’s medium (DMEM) 1 g/L glucose containing 10% fetal bovine serum, 1% L-glutamine 200 mM, and 1% penicillin (10,000 U/mL)–streptomycin (10 mg/mL), all from Merck KGaA. The buffer used in the assay was Hanks Balanced Salt Solution (HBSS, Merck). Control compounds were: sulpiride (low permeability control), metoprolol (high permeability control), talinolol (P-glycoprotein transport (Pgp) substrate control), and GF120918 (Elacridar, Pgp inhibitor), all purchased from Merck KGaA.
(§2) The day of the experiment, the integrity of the cell monolayers was assessed before and after the assay by measuring the transepithelial electrical resistance (TEER). The permeability of the compounds across the cell monolayer was determined by measuring their transport in both directions: apical to basolateral (A → B) and basolateral to apical (B → A) in the absence and presence of Elacridar (a known P-gp inhibitor). The donor working solution was prepared by dilution of the DMSO stock of the test compound or positive control with HBSS (pH 7.4) to 10 µM. For A → B directional transport, the donor working solution (with test compound or positive control, with or without P-gp inhibitor) was added to the apical (A) and HBSS was added to the basolateral (B) compartment. For B → A directional transport, the donor working solution (with positive control or test compound […], with or without P-gp inhibitor) was added to the basolateral (B) and HBSS was added to the apical (A) compartment. The assay was performed with a Hamilton Star Lab robotic system. Samples were collected at t0 and 2 h after incubation (5% CO2, 95% relative humidity, 37 °C) for LC-MS/MS analyses.
(§3) Apparent permeability (Papp) was calculated with the following equation: (5) Papp(cm/sec)=(Vr/C0)×(1/A)×(Cr(t)/t) where Vr is the volume of the solution in the receiving compartment (mL); C0 is the initial test compound concentration in the donor compartment (expressed as area ratio); A is the membrane surface area (0.14 cm^2); Cr (t) is the measured concentration of the receiver well at time t120 (expressed as area ratio); and t is time of incubation (sec).

[3] = lung tissue binding by equilibrium dialysis; assay type: in vitro ADME; settings: preterm rabbit lung homogenate, 4 h, 37 °C
Experimental: In vitro lung tissue binding was also determined by equilibrium dialysis as described above. Preterm rabbit lungs (New Zealand White, BIOIVT) were homogenized using a Precellys tissue homogenizer (Bertin instruments, Montigny-le-Bretonneux, France). Precellys lysing vials (CK28-R, Bertin instruments) were filled with lung and buffer according to the following proportion: 1 g of tissue and 5 mL of ice-cold PBS (dilution 1:6). At the end of the homogenization process, a pool of lung homogenate was prepared mixing equal amount of homogenate from three different donors. Test compounds and the positive control were diluted in the pooled lung homogenate to a final concentration of […] and then dispensed into the red chamber of the RED device inserts. PBS was dispensed into the other side. Upon completion of 4 h of incubation (37 °C under shaking), equal aliquots were removed from each chamber and matrix matched with even volumes of lung homogenate or buffer for LC-MS/MS analyses.
Free and Bound percentages of the compounds were calculated as follows:(3) %Free=Area buffer sample/Area lung homogenate sample×100 (4) % Bound=100−%Free

[4] = test system: db/db diabetic mice; parameters: method as in PMID 11600232, PMID 28656106; settings: compared with RGZ and PGZ; cited from earlier work
[5] = plasma protein binding by equilibrium dialysis; assay type: in vitro ADME; parameters: fraction unbound at 4 h: dose or concentration left out as unconfirmed; settings: 37 °C
Experimental: In vitro plasma protein binding was determined in preterm rabbit plasma (New Zealand White Pooled Gender, BIOIVT, Hicksville, NY, USA) by equilibrium dialysis using Thermo Fisher Scientific Pierce RED rapid equilibrium dialysis devices (Device Inserts 8K MWCO, Thermo Fisher Scientific, Waltham, MA, USA). The assay was performed using a Tecan Evoware robotic system (Männedorf, Switzerland). Test compounds and the positive control were diluted in the pooled plasma (three donors) to a final concentration of […] and then dispensed into the red chamber of the RED device inserts. Phosphate-Buffered Saline (PBS, from Merck KGaA, Darmstadt, Germany) was dispensed into the other side. Upon completion of 4 h of incubation (37 °C under shaking), equal aliquots were removed from each chamber and matrix matched with even volumes of plasma or buffer for LC-MS/MS analyses.
Free and Bound percentages of the compounds were calculated as follows:(1) %Free=Area buffer sample/Area plasma sample×100 (2) % Bound=100−%Free

[6] = Caco-2 permeability assay; assay type: in vitro ADME; settings: human, basolateral to apical
[7] = Caco-2 permeability assay; assay type: in vitro ADME; settings: human, apical to basolateral
Experimental: as §1, §2, §3

[8] = test system: patients with type 2 diabetes; settings: type II diabetes patients, compared with RZG; cited from earlier work

SMILES | pEC50 [1] | Papp (A–B) ([2]; apical to basolateral, 10 µM, 2 h, without Pgp inhibitor) [×10⁻⁶ cm/s] | Papp with Pgp Inhibitor (A–B) ([2]; apical to basolateral, with Elacridar) [×10⁻⁶ cm/s] | Papp (B–A) ([2]; basolateral to apical, 2 h, without Pgp inhibitor) [×10⁻⁶ cm/s] | Papp with Pgp Inhibitor (B–A) ([2]; basolateral to apical, with Elacridar) [×10⁻⁶ cm/s] | Lung Tissue Binding (%) [3] [%] | plasma glucose and TG reductions [4] | Plasma Protein Binding (%) ([5]; preterm rabbit plasma, 4 h) | Papp B→A at 2 h, 10 µM ([6]; Caco-2, pH 7.4, with Elacridar (GF120918), concentration not given, with Elacridar, read-out: Papp with Pgp Inhibitor (B–A) (converted)) [×10⁻⁶ cm/s] | Papp B→A at 2 h, 10 µM ([6]; Caco-2, pH 7.4, 2 h, without Pgp inhibitor, read-out: Papp (B–A) (converted)) [×10⁻⁶ cm/s] | Papp A→B at 2 h, 10 µM ([7]; Caco-2, pH 7.4, with Elacridar (GF120918), concentration not given, with Elacridar, read-out: Papp with Pgp Inhibitor (A–B)) [×10⁻⁶ cm/s] | Papp A→B at 2 h, 10 µM ([7]; Caco-2, pH 7.4, 10 µM, 2 h, without Pgp inhibitor, read-out: Papp (A–B)) [×10⁻⁶ cm/s] | fraction unbound at 4 h ([5]; both sexes, New Zealand White, preterm rabbit plasma (pooled)) | plasma triglycerides [8]
Cc1nn(CCOc2ccc(CC3SC(=O)NC3=O)cc2)c(=O)c2ccccc12 (stereo not drawn) [DRF-2546] | 6.22 | 22.9 ± 0.3 | 28.6 ± 1.5 | 18.7 ± 8 | 15.8 ± 3.4 | 91.8 ± 1.8 | superior | 98.4 ± 0.3 |  |  |  |  |  | 
CCc1ccc(CCOc2ccc(CC3SC(=O)NC3=O)cc2)nc1 (stereo not drawn) [PGZ, pioglitazone] |  |  |  |  |  | 95.6 ± 2.1 |  |  | 25.4 | 15.3 | 12.3 | 11.8 | 0.033 | significant reduction
